In this experiment the test system is 13762 breast carcinoma xenografts. The experiment in a line: Paclitaxel treatment of tumor xenografts (PTCH immunohistochemistry, tumor volume). In kind it is in vivo, rat. To be noted: rats, 20 mg/kg paclitaxel. The procedure:
All animal work was carried out in the Small Animal Imaging Facility (SAIF) at the University of Texas M.D. Anderson Cancer Center under an approved Institutional Animal Care and Use Committee (IACUC) protocol. Female Fischer 344 rats (150 ± 25 g, n = 6) (Harlan Sprague-Dawley, Indianapolis, IN) were inoculated subcutaneously with 0.1 mL of a 13762 breast carcinoma cell suspension (10^5 cells/rat of a breast tumor cell line specific to Fischer rats) into the hind legs using 25-gauge needles. Studies were performed 12–14 days after inoculation when tumors reached approximately 1 cm in diameter. For treatment studies, rats were injected with 20 mg/kg paclitaxel and reimaged 7 days later. After the posttreatment scan, tumors were removed and formalin sections were made. Control tumors were taken from untreated […] 13 days after inoculation. Sections were stained with an anti-patched antibody (Santa Cruz) using a peroxide-based immunohistochemical detection kit (Dako) according to the manufacturer's instructions.

Structures are written as SMILES.

On to `CC(=O)O[C@H]1C(=O)[C@@]2(C)[C@H]([C@H](OC(=O)c3ccccc3)[C@]3(O)C[C@H](OC(=O)[C@H](O)[C@@H](NC(=O)c4ccccc4)c4ccccc4)C(C)=C1C3(C)C)[C@]1(OC(C)=O)CO[C@@H]1C[C@@H]2O` [paclitaxel], for which the “tumor volume after treatment” value is listed as “decrease”. Moreover, the “PTCH protein expression in the residual tumor” value (seven days after treatment, immunohistochemistry) was “increase”.

These data come from paper PMC4172929, “Patched Targeting Peptides for Imaging and Treatment of Hedgehog Positive Breast Tumors” (BioMed Research International, 2014).
